Reference: patent publication US20240366560A1, “SMALL MOLECULE TREATMENT OF FATTY LIVER DISEASE AND HCC” (ScandiEdge Therapeutics AB, priority 2021, published 2024)

Key:
PKLR [1] = test: PKLR protein level by western blot in HepG2, 2-day drug treatment; format: cell-based; conditions: HepG2, two days of treatment, dosages per FIG. 5, P<0.05, FIG. 2A
Experimental: WT HepG2 was included in this study and cultured by Roswell Park Memorial Institute (RPMI, […], Sigma Aldrich) 1640 Medium with 10% fetal bovine serum (FBS) and 1% penicillin-streptomycin (PS). To induce a steatosis model into WT HepG2 cells, high glucose Dulbecco's Modified Eagle Media (DMEM, […]/[…], Sigma-Aldrich) containing 10% FBS and 1% PS was used as medium for one week, together with 10 μg/mL insulin and 10 μM T0901317. All of cells were incubated in the incubator with 5% CO2 and 37° C. (Thermo […]). Fresh medium was provided every two days. As for drug-screening, different numbers of HepG2 cells were seeded for distinct experiments. More in details, 40,000 cells and 500,000 cells were used for 2-day-drug treatment in 96-well-plate and 6-well plate, respectively, while 80,000 cells and 300,000 cells were used for one-week drug treatment in 96-well plate and 6-well plate, respectively. […] Fresh medium was provided every two days. Protein content levels were detected by western blot. After the respective treatment of drugs, the cell pellets were lysed in cell lytic M, followed by protein extraction from supernatant (10 min, 13,000r/min centrifuge). Extracted cell lysate was stored in -20° C. Proteins were quantified through Bovine albumin serum (BAS) standard curve with protein assay dye reagent (BIO-RAD). The proteins were separated by SDS-PAGE with 100v in 90 min by mini-protein TGX precast gels (4-15%, 15 wells, 15 μl/well, BIO-RAD), and then transfer to Mini PVDF transfer package through transfer system (Transfer-Turbo, BIO-RAD). After 30 min blocking with 5% skim milk in cold room (4° C.) and washing with TBST, membrane was cut by the size of interested proteins. Primary antibodies were added into the corresponding membrane sections for overnight binding. Then the membranes were washed with TBST, and the secondary antibodies were incubated for 1 h in cold room. The following antibody were used: (Goat pAb to Rb lg, ab205718, abcam; Rb pAb to beta-actin, ab8227, abcam; […]; Rb pAb to fatty acid synthase, ab99539, abcam). The bindings were imaged by immunostaining and machine (ImageQuant LAS 500). All antibodies were purchased from Abcam online, and βactin was used as global normalized protein. After measurement, the strength of signal for each protein was quantified by ImageJ. The background noise was removed, and all results were normalized by the levels of β-actin. To determine the inhibitory effects of these drugs on the expression level of PKLR, HepG2 was selected as the in vitro model for coherence. […] HepG2 cells were treated with these drugs for two days with different dosages due to their potential cellular toxicities (FIG. 5), and the PKLR protein level was the measured by western blotting. The level of protein expression of PKLR of the drug-treated groups was compared to that of the Ctrl group after normalizing with β-actin.

PKLR [2] = test: PKLR protein level by western blot in steatosis-induced HepG2, 7-day drug treatment; format: cell-based; conditions: steatosis-induced HepG2, 7 days of drug treatment, P<0.05, FIG. 2B
Experimental: (§1) WT HepG2 was included in this study and cultured by Roswell Park Memorial Institute (RPMI, R2405, Sigma Aldrich) 1640 Medium with 10% fetal bovine serum (FBS) and 1% penicillin-streptomycin (PS). To induce a steatosis model into WT HepG2 cells, high glucose Dulbecco's Modified Eagle Media (DMEM, D0822/D5671, Sigma-Aldrich) containing 10% FBS and 1% PS was used as medium for one week, together with 10 μg/mL insulin and 10 μM T0901317. All of cells were incubated in the incubator with 5% CO2 and 37° C. (Thermo SCIENTIFIC). Fresh medium was provided every two days.
(§2) As for drug-screening, different numbers of HepG2 cells were seeded for distinct experiments. More in details, 40,000 cells and 500,000 cells were used for 2-day-drug treatment in 96-well-plate and 6-well plate, respectively, while 80,000 cells and 300,000 cells were used for one-week drug treatment in 96-well plate and 6-well plate, respectively. Detailed drug dosages could be found in FIG. 5. Fresh medium was provided every two days.
(§3) Protein content levels were detected by western blot. After the respective treatment of drugs, the cell pellets were lysed in cell lytic M, followed by protein extraction from supernatant (10 min, 13,000r/min centrifuge). Extracted cell lysate was stored in −20° C. Proteins were quantified through Bovine albumin serum (BAS) standard curve with protein assay dye reagent (BIO-RAD). The proteins were separated by SDS-PAGE with 100v in 90 min by mini-protein TGX precast gels (4-15%, 15 wells, 15 μl/well, BIO-RAD), and then transfer to Mini PVDF transfer package through transfer system (Transfer-Turbo, BIO-RAD). After 30 min blocking with 5% skim milk in cold room (4° C.) and washing with TBST, membrane was cut by the size of interested proteins. Primary antibodies were added into the corresponding membrane sections for overnight binding. Then the membranes were washed with TBST, and the secondary antibodies were incubated for 1 h in cold room. The following antibody were used: (Goat pAb to Rb lg, ab205718, abcam; Rb pAb to beta-actin, ab8227, abcam; anti-pklr, HPA006653, SIGMA; Rb pAb to fatty acid synthase, ab99539, abcam). The bindings were imaged by immunostaining and machine (ImageQuant LAS 500). All antibodies were purchased from Abcam online, and βactin was used as global normalized protein. After measurement, the strength of signal for each protein was quantified by ImageJ. The background noise was removed, and all results were normalized by the levels of β-actin.
(§4) To further analyse the effect of these drugs on lipid accumulation via the DNL pathway, steatosis was induced to HepG2 by treating the cells with high glucose medium (DMEM), insulin and T0901317 (Hansmannel et al., 2006). […] Therefore, the effects of these two drugs on the de novo synthesis of lipids were investigated based on the steatosis-induced HepG2 model. […] Taken together, it was shown that BX-912 and JNK-IN-5A effectively alleviate the protein expression of PKLR and FASN as well as TG levels in HepG2 cell lines, and thus, it was decided to perform in vivo evaluations to test the effect of these two drugs.

FASN [3] = conditions: high-glucose-cultured HepG2 cell model (Hosseini et al., 2020); cited from earlier work
[4] = tested on: genes controlling fatty acid biosynthesis and Pcsk9; conditions: in vitro (Poirier et al., 2014); cited from earlier work
FASN [5] = test: FASN protein level by western blot in steatosis-induced HepG2, 7-day drug treatment; format: cell-based; conditions: steatosis-induced HepG2, 7 days of drug treatment, P<0.05, FIG. 2C
Experimental: as §1, §2, §3, §4

Molecule | protein expression of PKLR vs Ctrl, normalized with β-actin (PKLR [1]) | protein expression level of PKLR (PKLR [2]) | expression level of Fasn (FASN [3]) | expression level of a list of genes controlling fatty acid biosynthesis and Pcsk9 [4] | protein expression level of FASN (FASN [5])
N#CC(c1ccnc(NCCc2cccnc2)n1)c1nc2ccccc2s1 (stereo not drawn) [AS-601245] | significantly down-regulated | significantly decreased |  |  | 
Nc1ncn([C@@H]2O[C@H](CO)[C@@H](O)[C@H]2O)c(=O)n1 [Azacitidine] | significantly down-regulated | significantly decreased | decreases | reduces | significantly reduced
O=C(NC(NC(=S)Nc1ccc(F)c([N+](=O)[O-])c1)C(Cl)(Cl)Cl)C(c1ccccc1)c1ccccc1 (stereo not drawn) [CGK-733] | significantly down-regulated |  |  |  | 
CC(C)(C)c1nc(-c2cccc(NS(=O)(=O)c3c(F)cccc3F)c2F)c(-c2ccnc(N)n2)s1 [Dabrafenib] |  | significantly decreased |  |  | significantly reduced
CCCS(=O)(=O)Nc1ccc(F)c(C(=O)c2c[nH]c3ncc(Cl)cc23)c1F [PLX-4720] | significantly down-regulated | significantly decreased |  |  | significantly reduced
PF-477736 |  | significantly decreased |  |  | significantly reduced
